Like-named read-outs stand apart in the source and are kept apart here.
Assays:
[1] = tested on: wild-type HIV-1 (HIV-1LAI) in H9 cells (non-permissive); test: microbe, parasite or virus in culture; assay type: cell-based
[2] = tested on: wild-type HIV-1 (HIV-1LAI) in MT-4 cells (permissive); test: Antiviral activity assay: wild-type HIV-1 in permissive MT4 cells, reverse transcriptase activity in culture supernatants; assay type: cell-based
[3] = Human immunodeficiency virus 1, H9, read-out: Antiviral activity (IC50 μM) H9, Table 2, wild-type HIV-1, non-permissive H9 cells
[4] = Human immunodeficiency virus 1, H9, read-out: Antiviral activity (IC50 μM) H9 cells, Table 5, wild-type HIV-1, non-permissive H9 cells
[5] = Human immunodeficiency virus 1, H9, read-out: Antiviral activity (IC50 μM) H9 cells, Table 8, wild-type HIV-1, non-permissive H9 cells
[6] = Human immunodeficiency virus 1, H9, read-out: Antiviral activity (IC50 μM) H9 cells, wild-type HIV-1 (HIV-1LAI), H9 cells (non-permissive), RT activity in culture supernatants, compounds 1 to 50 μM
[7] = Human immunodeficiency virus 1, MT4, Table 2, wild-type HIV-1, permissive MT4 cells, read-out: Antiviral activity (IC50 μM) MT4
[8] = Human immunodeficiency virus 1, MT4, wild-type HIV-1 (HIV-1LAI), MT4 cells (permissive), RT activity in culture supernatants, compounds 1 to 50 μM, read-out: Antiviral activity (IC50 μM) MT4 cells
[9] = Human immunodeficiency virus 1, H9, read-out: Antiviral activity (IC50 μM) H9 Cells, Table 4, wild-type HIV-1, non-permissive H9 cells
[10] = Human immunodeficiency virus 1, H9, read-out: Antiviral activity (IC50 μM) H9 Cells, Table 7, wild-type HIV-1, non-permissive H9 cells

SMILES	IC50 [1, 3]	IC50 [1, 4]	IC50 [1, 5]	IC50 [1, 6]	IC50 [2, 7]	IC50 [2, 8]	IC50 [1, 9]	IC50 [1, 10]
COc1ccc(S(=O)(=O)c2ccccc2-c2cn(-c3ccc(OC)cc3OC)nn2)cc1 [Compound 4cy, 1-(2,4-Dimethoxyphenyl)-4-(2-((4-methoxyphenyl)sulfonyl)phenyl)-1H-1,2,3-triazole]	> 50 µM	> 50 µM	> 50 µM	> 50 µM	> 50 µM	> 50 µM		
COc1ccc(-n2cc(-c3ccccc3S(=O)(=O)c3ccc(C(F)(F)F)cc3)nn2)c(OC)c1 [Compound 4dy, 1-(2,4-Dimethoxyphenyl)-4-(2-((4-(trifluoromethyl)phenyl)sulfonyl)phenyl)-1H-1,2,3-triazole]	12 µM	12 µM	12 µM	12 µM	> 50 µM	> 50 µM	12 µM	12 µM
COc1ccc(-n2cc(-c3ccccc3Sc3ccc(C(=O)O)cc3)nn2)c(OC)c1 [Compound 4fx, 4-((2-(1-(2,4-Dimethoxyphenyl)-1H-1,2,3-triazol-4-yl)phenyl)thio)benzoic Acid]	7.1 µM	7.1 µM	7.1 µM	7.1 µM	> 50 µM	> 50 µM	7.1 µM	7.1 µM
COC(=O)c1ccc(S(=O)(=O)c2ccccc2-c2cn(-c3cc(OC)ccc3OC)nn2)cc1 [Compound 5by, Methyl 4-((2-(1-(2,5-dimethoxyphenyl)-1H-1,2,3-triazol-4-yl)phenyl)sulfonyl)benzoate]	4.6 µM	4.6 µM	4.6 µM	4.6 µM	> 50 µM	> 50 µM	4.6 µM	4.6 µM
COc1ccc(Sc2ccccc2-c2cn(-c3cc(OC)ccc3OC)nn2)cc1 [Compound 5cx, 1-(2,5-Dimethoxyphenyl)-4-(2-((4-methoxyphenyl)thio)phenyl)-1H-1,2,3-triazole]	15.7 µM	15.7 µM	15.7 µM	15.7 µM	> 50 µM	> 50 µM	15.7 µM	15.7 µM
COc1ccc(S(=O)(=O)c2ccccc2-c2cn(-c3cc(OC)ccc3OC)nn2)cc1 [Compound 5cy, 1-(2,5-Dimethoxyphenyl)-4-(2-((4-methoxyphenyl)sulfonyl)phenyl)-1H-1,2,3-triazole]	> 50 µM	> 50 µM	> 50 µM	> 50 µM	> 50 µM	> 50 µM		
COc1ccc(OC)c(-n2cc(-c3ccccc3Sc3ccc(C(F)(F)F)cc3)nn2)c1 [Compound 5dx, 1-(2,5-Dimethoxyphenyl)-4-(2-((4-(trifluoromethyl)phenyl)thio)phenyl)-1H-1,2,3-triazole]	46.4 µM	46.4 µM	46.4 µM	46.4 µM	> 50 µM	> 50 µM		
COc1ccc(OC)c(-n2cc(-c3ccccc3Sc3ccc(N)cc3)nn2)c1 [Compound 5ex, 4-((2-(1-(2,5-Dimethoxyphenyl)-1H-1,2,3-triazol-4-yl)phenyl)thio)aniline]	> 50 µM	> 50 µM	> 50 µM	> 50 µM	> 50 µM	> 50 µM		
COc1ccc(OC)c(-n2cc(-c3ccccc3Sc3ccc(C(=O)O)cc3)nn2)c1 [Compound 5fx, 4-((2-(1-(2,5-Dimethoxyphenyl)-1H-1,2,3-triazol-4-yl)phenyl)thio)benzoic Acid]	4.5 µM	4.5 µM	4.5 µM	4.5 µM	> 50 µM	> 50 µM	4.5 µM	4.5 µM
COc1ccc(OC)c(-n2cc(-c3ccccc3S(=O)(=O)c3ccc(C(=O)O)cc3)nn2)c1 [Compound 5fy, 4-((2-(1-(2,5-Dimethoxyphenyl)-1H-1,2,3-triazol-4-yl)phenyl)sulfonyl)benzoic Acid]	> 50 µM	> 50 µM	> 50 µM	> 50 µM	> 50 µM	> 50 µM		

Source: US11136301B2, “Broad spectrum antiviral compounds and uses thereof” (The Regents Of The University Of California, priority 2015, dated 2021)
